Assay [1] has as its system Staphylococcus aureus S13E. Format: cell-based. As to conditions: agar dilution. In general terms: In agar dilution the substance is mixed into plates at graded concentrations.
The subject of assay [2] is Streptococcus pneumoniae Park I. It counts as cell-based. As to conditions: agar dilution.
Assay [3] relates to Haemophilus influenzae 76. The assay is described as follows: MIC, standard agar-dilution assay. Conditions: Haemophilus influenzae 76, ampicillin-resistant strain. Format: cell-based.
The subject of assay [4] is Streptococcus Group 9960. The assay is described as follows: MIC, standard agar-dilution assay. Conditions: Streptococcus Group 9960; agar dilution. Format: cell-based.
In assay [5] the test system is Staphylococcus aureus X1.1. The assay is described as follows: MIC, standard agar-dilution assay. Format: cell-based. Conditions: Staphylococcus aureus X1.1; agar dilution.
Assay [6] has as its system Staphylococcus epidermidis EPI1. It counts as cell-based. Conditions: Staphylococcus epidermidis EPI1; agar dilution.
The subject of assay [7] is Staphylococcus aureus X400. The assay is described as follows: MIC, standard agar-dilution assay. Format: cell-based. Conditions: Staphylococcus aureus X400, methicillin-resistant strain.
The subject of assay [8] is Haemophilus influenzae C.L. The assay is described as follows: MIC, standard agar-dilution assay. It counts as cell-based. Conditions: ampicillin-sensitive strain.
Assay [9] deals with Staphylococcus aureus. The assay is described as follows: ED50 in experimentally infected mice. Format: in vivo. As to conditions: mice infected with Staphylococcus aureus; administered subcutaneously 1 and 4 hours postinfection.
Assay [10] has as its system Streptococcus pyogenes C203. The assay is described as follows: MIC, standard agar-dilution assay. As to conditions: Streptococcus pyogenes C203; agar dilution. It counts as cell-based.
Assay [11] has as its system Streptococcus pneumoniae. The assay is described as follows: ED50 in experimentally infected mice. As to conditions: mice infected with Streptococcus pneumoniae; administered subcutaneously 1 and 4 hours postinfection. Format: in vivo. The method, then: (§1) Some of the derivatives of this invention have shown in vivo antimicrobial activity against experimentally-induced infections in laboratory animals. When two doses of test compound were administered to experimentally infected mice, the activity observed was measured as an ED50 value [effective dose in mg/kg to protect 50% of the test animals: see Warren Wick, et al., J. Bacteriol. 81, 233-235 (1961)].
(§2) ^a mg/kg × 2; administered subcutaneously 1 and 4 hours

Assay [12] relates to Streptococcus pyogenes. The assay is described as follows: ED50 in experimentally infected mice. Format: in vivo. Conditions: mice infected with Streptococcus pyogenes; administered subcutaneously 1 and 4 hours postinfection. The method, then: as §1, §2
Assay [13] relates to Staphylococcus epidermidis EPI2. The assay is described as follows: MIC, standard agar-dilution assay. Format: cell-based.
The subject of assay [14] is Streptococcus Group D X66. The assay is described as follows: MIC, standard agar-dilution assay. As to conditions: Streptococcus Group D X66; agar dilution. Format: cell-based.
Assay [15] relates to Staphylococcus aureus V41. The assay is described as follows: MIC, standard agar-dilution assay. Conditions: Staphylococcus aureus V41, penicillin-resistant strain; agar dilution. Format: cell-based.

As for N--(nonanoyl)A47934 [Example 25], the MIC in assay [1] is 0.125 µg/mL; in assay [2], 0.25 µg/mL; in assay [3], 8 µg/mL; in assay [4] it was 0.25 µg/mL; in assay [5], 0.125 µg/mL; in assay [6] it was 0.06 µg/mL. Also, the MIC in assay [7] was 0.25 µg/mL; in assay [8], 8 µg/mL; in assay [10], 0.5 µg/mL; in assay [13] it was 0.125 µg/mL; in assay [14], 0.25 µg/mL; in assay [15] it was 0.125 µg/mL. Moreover, the ED50 in assay [9] is listed as < 0.31 mg/kg × 2; in [11], > 10 mg/kg × 2; in assay [12] it was > 10 mg/kg × 2.
As to “N--[p-(octyloxy)benzoyl]A41030A [Example 21]”, the MIC in assay [1] is 2 µg/mL; in [2] it was 2 µg/mL; in [3] it was “-- (Compound not active at less than 128 mcg/ml)”; in assay [4], 1 µg/mL; in assay [5], 1 µg/mL; in assay [6], 0.5 µg/mL. Moreover, the MIC was 2 µg/mL in assay [7]; “-- (Compound not active at less than 128 mcg/ml)” in [8]; 2 µg/mL in assay [10]; 1 µg/mL in [13]; 2 µg/mL in assay [14]; 1 µg/mL in assay [15]. The ED50 is on record as 2.19 mg/kg × 2 in assay [9], > 10 mg/kg × 2 in [11] and > 10 mg/kg × 2 in assay [12].

These data come from patent publication US4497802A, “N-Acyl glycopeptide derivatives” (Eli Lilly and Company, priority 1983, dated 1985).
